ChEMBL document CHEMBL1201862, “PubChem BioAssay data set” (2004)
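All cell lines were grown in 96-well plates and treated with compound for 48 hours. The concentration for 50% growth inhibition is given as GI50.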 Calls of active or inactive are those of the source. Rule as the data show it: active = GI50 up to about 1.1 µM and inactive = higher.

What was measured:
Assay in all cases: NCI anticancer screen, dose series, 48 h
[1] = test system: Hs-578T
[2] = test system: ACHN
[3] = test system: HL-60
[4] = test system: M14
[5] = test system: SNB-19
[6] = test system: SF-539
[7] = test system: A549
[8] = test system: TK-10
[9] = test system: OVCAR-8
[10] = test system: CCRF-CEM
[11] = test system: PC-3
[12] = test system: 786-0
[13] = test system: SK-MEL-28
[14] = test system: RXF 393
[15] = test system: UO-31
[16] = test system: UACC-62
[17] = test system: HCC 2998
[18] = test system: MDA-N
[19] = test system: OVCAR-3
[20] = test system: Malme-3M

SMILES | GI50 [1] | GI50 [2] | GI50 [3] | GI50 [4] | GI50 [5] | GI50 [6] | GI50 [7] | GI50 [8] | GI50 [9] | GI50 [10] | GI50 [11] | GI50 [12] | GI50 [13] | GI50 [14] | GI50 [15] | GI50 [16] | GI50 [17] | GI50 [18] | GI50 [19] | GI50 [20]
O=C1NC(N2CCOCC2)=N/C1=C\c1ccco1 | > 100 µM (inactive) | > 100 µM (inactive) | > 100 µM (inactive) | > 100 µM (inactive) | > 100 µM (inactive) | > 100 µM (inactive) | > 100 µM (inactive) | > 100 µM (inactive) | > 100 µM (inactive) | > 100 µM (inactive) | > 100 µM (inactive) | > 100 µM (inactive) | > 100 µM (inactive) | > 100 µM (inactive) | > 100 µM (inactive) | > 100 µM (inactive) | > 100 µM (inactive) | > 100 µM (inactive) | > 100 µM (inactive) | –
Cc1cc(C)c(C)c(-n2[nH]c(=O)n(C)c2=O)c1C | > 100 µM (inactive) | > 100 µM (inactive) | > 100 µM (inactive) | > 100 µM (inactive) | > 100 µM (inactive) | > 100 µM (inactive) | > 100 µM (inactive) | > 100 µM (inactive) | > 100 µM (inactive) | > 100 µM (inactive) | > 100 µM (inactive) | > 100 µM (inactive) | > 100 µM (inactive) | – | > 100 µM (inactive) | > 100 µM (inactive) | – | > 100 µM (inactive) | > 100 µM (inactive) | –
Nc1ncnc2c1ncn2C1C=CC(CP(=O)(O)O)C1 (centres undefined) | 11 µM (inactive) | > 100 µM (inactive) | – | > 100 µM (inactive) | > 100 µM (inactive) | > 100 µM (inactive) | > 100 µM (inactive) | > 100 µM (inactive) | > 100 µM (inactive) | – | > 100 µM (inactive) | > 100 µM (inactive) | > 100 µM (inactive) | > 100 µM (inactive) | > 100 µM (inactive) | > 100 µM (inactive) | > 100 µM (inactive) | > 100 µM (inactive) | > 100 µM (inactive) | > 100 µM (inactive)
O=C(O)Cc1cc(O)c(CC(=O)O)cc1O | > 100 µM (inactive) | > 100 µM (inactive) | > 100 µM (inactive) | > 100 µM (inactive) | > 100 µM (inactive) | – | > 100 µM (inactive) | > 100 µM (inactive) | > 100 µM (inactive) | – | > 100 µM (inactive) | > 100 µM (inactive) | > 100 µM (inactive) | > 100 µM (inactive) | > 100 µM (inactive) | > 100 µM (inactive) | > 100 µM (inactive) | > 100 µM (inactive) | > 100 µM (inactive) | > 100 µM (inactive)
COC(=O)C1=CSC2(S1)C(C(=O)OC)=CSc1c2ss/c1=N\c1ccccc1 (centres undefined) | 2.55 µM (inactive) | 2.56 µM (inactive) | – | 2.02 µM (inactive) | 2.47 µM (inactive) | 1.38 µM (inactive) | 2.52 µM (inactive) | 2.7 µM (inactive) | 1.81 µM (inactive) | 1.6 µM (inactive) | 5.08 µM (inactive) | 1.49 µM (inactive) | 2.38 µM (inactive) | 1.78 µM (inactive) | 2.52 µM (inactive) | 1.6 µM (inactive) | 1.72 µM (inactive) | 2.17 µM (inactive) | 3.24 µM (inactive) | 0.813 µM (active)
CCCCCCCCC/C=C1/CC(CO)(COC(=O)C2CCCCC2)OC1=O (centres undefined) | 62.8 µM (inactive) | > 100 µM (inactive) | – | > 100 µM (inactive) | > 100 µM (inactive) | – | > 100 µM (inactive) | > 100 µM (inactive) | > 100 µM (inactive) | > 100 µM (inactive) | > 100 µM (inactive) | > 100 µM (inactive) | > 100 µM (inactive) | > 100 µM (inactive) | > 100 µM (inactive) | > 100 µM (inactive) | > 100 µM (inactive) | 86.7 µM (inactive) | > 100 µM (inactive) | 43.3 µM (inactive)
O=C(O)CN1CCNCCNCC1 | > 100 µM (inactive) | > 100 µM (inactive) | 0.9 µM (active) | > 100 µM (inactive) | > 100 µM (inactive) | > 100 µM (inactive) | > 100 µM (inactive) | > 100 µM (inactive) | > 100 µM (inactive) | > 100 µM (inactive) | > 100 µM (inactive) | > 100 µM (inactive) | > 100 µM (inactive) | – | > 100 µM (inactive) | > 100 µM (inactive) | – | > 100 µM (inactive) | > 100 µM (inactive) | –
C#C[C@]1(O)CC[C@H]2[C@@H]3CCC4=C/C(=N/OC(=O)c5cccc6c(=O)c7ccccc7[nH]c56)CCC4[C@H]3CC[C@@]21CC (some centres undefined) | > 100 µM (inactive) | 26.2 µM (inactive) | 2.44 µM (inactive) | 34.5 µM (inactive) | 69.3 µM (inactive) | – | 41.7 µM (inactive) | > 100 µM (inactive) | 19.8 µM (inactive) | 8.05 µM (inactive) | 18.5 µM (inactive) | 4.91 µM (inactive) | 22 µM (inactive) | 2.34 µM (inactive) | 23.2 µM (inactive) | 20.4 µM (inactive) | 26.5 µM (inactive) | 26.4 µM (inactive) | 18.7 µM (inactive) | 34.7 µM (inactive)
COC(=O)C(CNC(=O)/C=C/c1ccc(OC(C)=O)c(OC(C)=O)c1)NC(=O)/C=C/c1ccc(OC(C)=O)c(OC(C)=O)c1 (centres undefined) | > 100 µM (inactive) | > 100 µM (inactive) | – | > 100 µM (inactive) | 93.3 µM (inactive) | > 100 µM (inactive) | > 100 µM (inactive) | > 100 µM (inactive) | > 100 µM (inactive) | 42.4 µM (inactive) | > 100 µM (inactive) | > 100 µM (inactive) | > 100 µM (inactive) | > 100 µM (inactive) | > 100 µM (inactive) | > 100 µM (inactive) | > 100 µM (inactive) | > 100 µM (inactive) | > 100 µM (inactive) | > 100 µM (inactive)
O=C(CC(C(=O)c1cccs1)c1ccsc1)c1ccc(Cl)cc1 (centres undefined) | > 100 µM (inactive) | > 100 µM (inactive) | > 100 µM (inactive) | > 100 µM (inactive) | > 100 µM (inactive) | > 100 µM (inactive) | > 100 µM (inactive) | > 100 µM (inactive) | > 100 µM (inactive) | > 100 µM (inactive) | > 100 µM (inactive) | > 100 µM (inactive) | > 100 µM (inactive) | – | > 100 µM (inactive) | > 100 µM (inactive) | > 100 µM (inactive) | > 100 µM (inactive) | – | > 100 µM (inactive)
CC(C)CCNC(=O)c1ccc(CNC(=O)/C=C/c2cccc(Oc3ccccc3)c2)cc1 | > 100 µM (inactive) | 48.4 µM (inactive) | – | 31 µM (inactive) | 24.5 µM (inactive) | 11.6 µM (inactive) | 42.6 µM (inactive) | 22.6 µM (inactive) | 25.9 µM (inactive) | – | 46.2 µM (inactive) | 24 µM (inactive) | > 100 µM (inactive) | 18.6 µM (inactive) | 45 µM (inactive) | 23.8 µM (inactive) | 26.9 µM (inactive) | 16.5 µM (inactive) | 28.4 µM (inactive) | > 100 µM (inactive)
Clc1ccc(CNc2nc(Cl)c3nc[nH]c3n2)cc1Cl | 21 µM (inactive) | 31.2 µM (inactive) | – | 20.8 µM (inactive) | 34 µM (inactive) | 13.5 µM (inactive) | 23.1 µM (inactive) | 12.2 µM (inactive) | 17.9 µM (inactive) | 35.5 µM (inactive) | 21.6 µM (inactive) | 27.7 µM (inactive) | – | 30.9 µM (inactive) | 11.4 µM (inactive) | 11.2 µM (inactive) | 19.8 µM (inactive) | 26.4 µM (inactive) | 18.9 µM (inactive) | 26.4 µM (inactive)
C[C@]12CC[C@H]3[C@@H](CCC4=CC(=O)CC[C@@]43C)[C@@H]1CC[C@@H]2C(=O)Nc1ccc([N+](=O)[O-])c(C(F)(F)F)c1 | 18.2 µM (inactive) | 18.7 µM (inactive) | 39.4 µM (inactive) | – | 18.5 µM (inactive) | 18.7 µM (inactive) | 17.9 µM (inactive) | 19 µM (inactive) | 26.4 µM (inactive) | 24.7 µM (inactive) | 19.6 µM (inactive) | 16.6 µM (inactive) | 20.7 µM (inactive) | – | 16.6 µM (inactive) | 15.3 µM (inactive) | 12.9 µM (inactive) | > 10 µM (inactive) | 22.8 µM (inactive) | 15.6 µM (inactive)
O=C1O[C@H](COC(=O)c2ccccc2)[C@@H](OC(=O)c2ccccc2)C=C1OC(=O)c1ccccc1 | 33 µM (inactive) | 16 µM (inactive) | 10.5 µM (inactive) | 17.5 µM (inactive) | 18.1 µM (inactive) | 17.6 µM (inactive) | – | 27.9 µM (inactive) | 21.8 µM (inactive) | 14.1 µM (inactive) | 25.4 µM (inactive) | 18.2 µM (inactive) | – | 17 µM (inactive) | 30.9 µM (inactive) | 20.7 µM (inactive) | > 100 µM (inactive) | 31.7 µM (inactive) | 18.3 µM (inactive) | –
CC1=CC(=O)/C(=C(/C)NCCN(CCN/C(C)=C2\C(=O)C=C(C)OC2=O)CCN/C(C)=C2\C(=O)C=C(C)OC2=O)C(=O)O1 | > 100 µM (inactive) | > 100 µM (inactive) | > 100 µM (inactive) | > 100 µM (inactive) | > 100 µM (inactive) | > 100 µM (inactive) | > 100 µM (inactive) | > 100 µM (inactive) | > 100 µM (inactive) | > 100 µM (inactive) | > 100 µM (inactive) | > 100 µM (inactive) | > 100 µM (inactive) | – | > 100 µM (inactive) | – | > 100 µM (inactive) | > 100 µM (inactive) | – | –
